This experiment has as its system B cell line, TNFa signaling counterscreen reporter. Put plainly: TNFa signaling inhibitors in B cell line, dose response, counter-screen (AID 1259334).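 Note: cells stimulated with TNFa after compound preincubation.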

The source made the active and inactive calls. Cut-off read from the data, not from the text of the source: active = AC50 below about 11 µM. Numbered stars: 1 amine (or outer) side, 2 acyl side, 3 side chain; on linkers, the order of the positions; unused ones are H or OH. Bridge positions count the residues as written; N and C are the ends. Square brackets hold non-standard residues; d marks the D form. Peptide text beside a SMILES is read from it. I, II: the chains in the order shown. Actinocin(9to1) = Cc1c2oc3c(C)ccc(C(=O)[*:1])c3nc-2c(C(=O)[*:2])c(N)c1=O; NMeV = CN[CH](C(=O)O)C(C)C; Sar = CNCC(=O)O

In general, AC50 refers to the concentration giving half of the maximal activity seen.

Regarding `Cc1noc(C)c1S(=O)(=O)N(C)C[C@H]1OCc2ccccc2-c2c(n(C)c3ccccc23)C(=O)N([C@@H](C)CO)C[C@H]1C`, the AC50 was > 20 µM (inactive).
Turning to `c1ccc(OCCSc2nnc3sc4ccccc4n23)cc1`, the AC50 was 2.98 µM.
To `C[C@@H]1CCCCO[C@@H](CN(C)Cc2ccc(Cl)c(Cl)c2)[C@H](C)CN([C@H](C)CO)C(=O)c2cc(NS(=O)(=O)c3cccs3)ccc2O1` belongs 6.39 µM.
For the molecule `CC(=NNc1ccc2ccccc2n1)c1ccccc1O`, the AC50 is 1.52 µM.
For `NC(=O)c1c(Br)n(C2OC(CO)C(O)C2O)c2ncnc(N)c12` (centres undefined), the AC50 is 1.5 µM.
With `C[C@@H]1CN([C@@H](C)CO)S(=O)(=O)c2ccc(C#Cc3ccccc3F)cc2O[C@H]1CN(C)C(=O)Cc1cccnc1`, the AC50 is > 20 µM (inactive).
To `O=C(C#Cc1ccccc1)c1ccccc1` belongs 5.68 µM; to `CC(=O)OCC(=O)C1(O)CCC2C3CCC4=CC(=O)CCC4(C)C3(Cl)C(O)CC21C` (centres undefined), > 20 µM (inactive).
To `CC(C)c1ccc(NC(=O)Nc2nc(C(N)COCc3ccccc3)cs2)cc1` (centres undefined) belongs 1.78 µM.
As for `C[C@@H]1CN([C@@H](C)CO)C(=O)c2c(c3ccccc3n2C)-c2ccccc2CO[C@@H]1CN(C)C(=O)Nc1ccccc1C(F)(F)F`, the figure is 7.57 µM; as for `Cc1ccc(CN2CC(C(=O)Nc3ncc(C)s3)CC2=O)cc1` (centres undefined), 4.2 µM.
In the case of `C[C@@H]1CN([C@@H](C)CO)C(=O)Cc2cc(NS(=O)(=O)c3ccc(F)cc3)ccc2O[C@H]1CN(C)Cc1ccc(C(F)(F)F)cc1`, the AC50 was 5.36 µM.
To `CC(=O)Nc1ccc(Sc2ccc([N+](=O)[O-])o2)cc1` belongs 1.64 µM; to `Fc1ccccc1CNCCC(Cc1ccccc1)c1ccc2c(c1)OCO2` (centres undefined), 3.4 µM; to `C=CC[n+]1c(/C=C2\C=Cc3cc(C)ccc3N2CC)ccc2ccccc21`, 0.951 µM.
To `Cc1ccnc(NC(=O)c2ccc(OCC3CCCO3)cc2)c1` (centres undefined) belongs 5.1 µM; to `CO[C@@H](CN(C)S(=O)(=O)c1ccc(Cl)cc1)[C@H](C)CN(Cc1ccccc1Cl)[C@@H](C)CO`, > 20 µM (inactive); to `Cc1c2oc3c(C)ccc(C(=O)OC(C)C4NC(=O)C(C(C)C)N(C)C(=O)CN(C)C(=O)C5CCCN5C(=O)C(C(C)C)NC4=O)c3nc-2c(C(=O)OC(C)C2NC(=O)C(C(C)C)N(C)C(=O)CN(C)C(=O)C3CCCN3C(=O)C(C(C)C)NC2=O)c(N)c1=O` (centres undefined) (I: cyclo([Sar][NMeV]TVP) / II: cyclo([Sar][NMeV]TVP); linker I:3-II:3 via Actinocin(9to1); configuration not given here), 0.00519 µM.
To `C[C@H](CO)N1C[C@H](C)[C@@H](CN(C)Cc2ccc(Cl)c(Cl)c2)OCCCC[C@H](C)Oc2ccc(NS(=O)(=O)c3cccs3)cc2C1=O` belongs 8.48 µM; to `COc1cc(/C=N/n2cnnc2)ccc1OC(=O)c1ccncc1`, 8.26 µM; to `CC(C)(C)c1cc(C=C(C#N)C#N)cc(C(C)(C)C)c1O`, 1.22 µM.
For `Cc1cccc(-c2ccc(C3[C@@H]4CN(C(=O)Nc5ccc(C(F)(F)F)cc5)C[C@H]3N4)cc2)c1` (some centres undefined), the AC50 was > 20 µM (inactive).
To `COC1=CC(=O)c2c(ccc3ncnc(N)c23)C1=O` belongs 0.98 µM.
As for `COc1ccc(C=Cc2ccc3ccccc3n2)c(OC)c1`, the figure is 3.48 µM.
As for `COc1ccc2cc(-c3cc(C(=O)O)c4ccccc4n3)ccc2c1`, the figure is 6.93 µM; as for `CC=Cc1cc2c(c(=O)o1)C(=O)C(O)C(C)O2` (centres undefined), 10.4 µM; as for `COc1ccc(S(=O)(=O)Nc2ccc3c(c2)C(=O)N([C@@H](C)CO)C[C@@H](C)[C@@H](CN(C)Cc2ccc(C(F)(F)F)cc2)OCCCC[C@@H](C)O3)cc1`, > 20 µM (inactive).
Turning to `Cc1ccc(OC(=O)N(C)C[C@@H]2OCc3ccccc3-c3c(n(C)c4ccccc34)C(=O)N([C@@H](C)CO)C[C@H]2C)cc1`, the AC50 was 7.67 µM.
As for `O=C(Cc1ccccc1)N1CC[C@@H]2[C@H]1c1cc(C#Cc3cccc(F)c3)ccc1N[C@@H]2CO`, the figure is 6.03 µM.
Take `CC1=CC2OC3CC4OC(=O)C=CC=CC(C(C)O)OCC(O)C5(C)OC5C(=O)OCC2(CC1O)C4(C)C31CO1` (centres undefined): the AC50 is 0.0273 µM.
To `C[C@H](CO)N1C[C@H](C)[C@H](CN(C)C(=O)Nc2cccc(Cl)c2Cl)OCc2ccccc2-c2c(n(C)c3ccccc23)C1=O` belongs 2.81 µM; to `N#C[C@@H]1[C@H](c2ccc(C#Cc3ccccc3F)cc2)[C@@H](CO)N1C(=O)c1cccnc1`, 6.76 µM.
As for `COc1ccc(C(=O)/C=C/C(=O)N(CC(=O)NC2CCCCC2)Cc2ccc(F)cc2)c(O)c1`, the figure is 5.1 µM.
As for `CS(=O)(=O)c1ccc(C(=O)OCC(=O)NC(=O)C2CCCCC2)cc1[N+](=O)[O-]`, the figure is 2.79 µM; as for `N#C[C@@H]1[C@H](c2ccc(C#CC3CCCCC3)cc2)[C@@H](CO)N1S(=O)(=O)c1ccccc1`, 7.1 µM.
For the molecule `CC1CC(C)C(=O)C(C(O)CC2CC(=O)NC(=O)C2)C1` (centres undefined), the AC50 is 0.115 µM.
As for `CC(=O)OC1C(=O)OCC23CCC4(C)OC4C2OC2CC(OC(=O)C=CC=CC(=O)OCCC1C)C3(C)C21CO1` (centres undefined), the figure is 0.00412 µM; as for `CCS(=O)(=O)N1Cc2ccccc2CC1C(=O)Nc1nc2ccccc2s1` (centres undefined), 6.66 µM; as for `N#Cc1cccc(-c2ccc([C@@H]3[C@@H]4CN(S(=O)(=O)c5ccc(-c6ccccc6)cc5)C[C@H]3N4)cc2)c1`, 11.4 µM.
As for `O=C(NCCc1ccccc1)c1ccc2nccnc2c1`, the AC50 was 7.65 µM.
As for `OC(c1cc(-c2cccc(Cl)c2)nc2ccccc12)C1CCCCN1` (centres undefined), the figure is 2.26 µM.
As for `CC(=O)O[C@H]1C[C@H](O[C@H]2[C@@H](O)C[C@H](O[C@H]3[C@@H](O)C[C@H](O[C@H]4CC[C@@]5(C)C(CCC6C5C[C@@H](O)[C@]5(C)[C@@H](C7=CC(=O)OC7)CC[C@]65O)C4)O[C@@H]3C)O[C@@H]2C)O[C@H](C)[C@H]1O[C@@H]1O[C@H](CO)[C@@H](O)[C@H](O)[C@H]1O` (some centres undefined), the figure is 1.01 µM.
As for `COC(=O)c1nn(-c2ccc(-c3ccccc3)cc2)cc1O`, the figure is 8.92 µM; as for `COc1ccc(Cl)cc1NC(=O)Nc1cc(C)nc2ccccc12`, > 20 µM (inactive); as for `N#Cc1cccc(-c2ccc(C3[C@@H]4CN(C(=O)Nc5ccc(C(F)(F)F)cc5)C[C@H]3N4)cc2)c1` (some centres undefined), 10 µM.
For the molecule `CC(=O)O[C@@H]1C[C@@]2(C)[C@H](c3ccoc3)C[C@H]3O[C@]32[C@]2(C)C(=O)C(=O)C3C(C)(C)C(=O)C=C[C@]3(C)C12` (some centres undefined), the AC50 is 1.22 µM.
To `CCCNC(=O)c1cc2c(c(-c3cccc(-c4cc5ccccc5o4)c3)n1)[C@H](CCO)N(C(=O)NC(C)C)C2` belongs > 20 µM (inactive); to `O=C(Nc1ccccn1)c1ccc(-c2ccccc2)cc1`, 2.91 µM.
As for `c1ccn2cc(-c3ccc4c(c3)OCCO4)nc2c1`, the figure is 9.69 µM; as for `COC(=O)C1=C(C(=O)OC)C2OC1c1cc3ccccc3cc12`, 0.519 µM.
To `Cc1cnc(NC(=O)c2ccc(OCC3CCCO3)cc2)s1` (centres undefined) belongs 4.02 µM; to `C[C@@H]1CN([C@@H](C)CO)C(=O)c2c(c3ccccc3n2C)-c2ccccc2CO[C@@H]1CN(C)Cc1ccccc1C(F)(F)F`, > 20 µM (inactive); to `CC(C)CC#Cc1ccc([C@@H]2[C@H]3CN(C(=O)Nc4ccccc4)CCCCN3[C@H]2CO)cc1`, 6.52 µM.
For the molecule `Oc1ccc2c(c1)OCC1(O)Cc3cc(O)c(O)cc3C21` (centres undefined), the AC50 is 2.18 µM.
To `O=C1c2ccccc2C(=O)C1c1ccc2ccccc2n1` belongs 10.6 µM; to `O=C1NC2c3c(Cl)sc(Cl)c3C(=O)C2O1` (centres undefined), 4.18 µM; to `O=C(COc1cccnc1[N+](=O)[O-])c1ccc(Cl)s1`, 4.71 µM.
As for `C[C@H]1CN([C@@H](C)CO)C(=O)c2c(c3ccccc3n2C)-c2ccccc2CO[C@@H]1CN(C)Cc1cccc(C(F)(F)F)c1`, the AC50 is 8.42 µM.
As for `O=C(/C=C/c1ccccc1)CC(O)(c1ccccc1)C(F)(F)C(F)F` (centres undefined), the figure is 5.06 µM; as for `Cc1csc(NC(=O)c2ccc(N3CCCC3=O)cc2)n1`, 3.75 µM; as for `CC(C)=CCc1c2c(c3occ(-c4ccc(O)c(O)c4)c(=O)c3c1O)C=CC(C)(C)O2`, 8.15 µM.
As for `CCC(=O)NC(c1ccccc1OC)c1ccc2cccnc2c1O` (centres undefined), the figure is 9.46 µM; as for `COc1ccc(CNCCC(c2ccc(F)cc2)c2ccc(OC(C)C)cc2)cc1OC` (centres undefined), 3.5 µM; as for `C[C@@H]1O[C@@H](O[C@H]2C[C@@H](O)[C@]3(CO)C4C(CC[C@]3(O)C2)[C@@]2(O)CC[C@H](C3=CC(=O)OC3)[C@@]2(C)C[C@H]4O)[C@H](O)[C@H](O)[C@H]1O` (some centres undefined), 0.138 µM.
Turning to `C[C@H](CO)N1C[C@H](C)[C@H](CN(C)S(=O)(=O)c2ccc(Cl)cc2)Oc2c(NC(=O)Nc3ccc(F)cc3)cccc2C1=O`, the AC50 is 4.98 µM.
As for `Cc1cc(C(=O)COC(=O)CNC(=O)c2ccccc2)c(C)n1CC1CCCO1` (centres undefined), the figure is 5.61 µM; as for `CC[C@H]1CN2CCc3cc(OC)c(OC)cc3C2C[C@@H]1CC1NCCc2cc(OC)c(OC)cc21` (some centres undefined), 0.011 µM.
To `COCC(=O)N1[C@H](C#N)[C@H](c2ccc(C#Cc3ccccc3F)cc2)[C@H]1CO` belongs 2.23 µM.
As for `O=c1cc(-c2ccc(O)cc2)oc2ccc3ccccc3c12`, the AC50 was 1.67 µM.
As for `CC12CCC3C(CCC4(O)CC(O)CCC34C=O)C1(O)CCC2C1=CC(=O)OC1` (centres undefined), the figure is 3.75 µM; as for `C=C1C(=O)OC2CC1C(O)CC(C)=CCCC(C)=CC(O)CC2C` (centres undefined), 2.27 µM.
As for `COc1ccc(-c2ccc([C@H]3[C@@H](C#N)N(C(=O)c4cccc(F)c4)[C@H]3CO)cc2)cc1`, the figure is > 22 µM (inactive); as for `NC(c1ccccc1)c1csc(NC(=O)Nc2cccc(C(F)(F)F)c2)n1` (centres undefined), 3.07 µM; as for `CSc1ccc2c(c1)N(CCC1CCCCN1C)c1ccccc1S2` (centres undefined), 6.07 µM.
To `O=C(NC(=S)/C(=C1\CCCCCN1)[N+](=O)[O-])c1ccccc1` belongs 0.12 µM.
`O=C1CC(=O)OC(c2ccc([N+](=O)[O-])cc2)O1`: the AC50 is 1.09 µM.
To `Oc1c(Cl)cc(Cl)cc1Sc1cc(Cl)cc(Cl)c1O` belongs 3.41 µM.
As for `CC1=C(O)C(=O)C=C2C1=CC=C1C2(C)CCC2(C)C3CC(C)(C(=O)O)CCC3(C)CCC12C` (centres undefined), the figure is 0.414 µM.
As for `Cc1cc(C)nc(Sc2ncnc(N)c2[N+](=O)[O-])n1`, the figure is 2.53 µM.

For the origin of these results see PubChem BioAssay AID1259334 (Broad Institute, 2017).
